# Patent US12485132B2, “GPX4 inhibitors and senolytic compounds and uses thereof” (Rubedo Life Sciences, Inc., priority 2023, dated 2025)
# Tests used:
# Type in all cases: cell-based
# [1] = tested on: senescent normal human dermal fibroblasts; assay: Rescue of compound-induced cell death by ferrostatin-1 in senescent fibroblasts; details: compounds at 1.11 μM, ferrostatin-1 at 0.375 and 6 μM; 24 hours; CellTiter-Glo
# Text: Cell death induced by ferroptosis-inducing agents can be characterized by rescuing the cellular response with radical trapping agents that prevent the accumulation of phospholipid hydroperoxides (Stockwell et al., Cell Chem Biol 2020 27 (4): 365-375). As such, ferrostatin-1 was identified as a potent inhibitor of ferroptosis for which a free radical trapping mechanism had been reported (Skouta et al., J Am Chem Soc 2014 136 (12): 4551-6; Zika et al., ACS Cent Sci. 2017 3 (3): 232-243; and Miotto et al., Redox Biol. 2020; 101328). To determine whether compounds 18 and 32 induce ferroptosis in senescent cells, normal human dermal fibroblasts were induced to undergo senescence by treatment with a sublethal concentration of chemotherapy (bleomycin sulfate), followed by a rest period without chemotherapy similarly to previous reports (Aoshiba et al., 2003 3:436-43). Cells were maintained in DMEM media (high glucose, 4 mM L-glutamine, no sodium pyruvate) supplemented with 10% heat-inactivated fetal bovine serum in a humidified incubator at 37° C. with 5% carbon dioxide and 5% oxygen. Cellular senescence was qualified by reduced EdU (5-ethynyl-2′-deoxyuridine) incorporation and increased SA-β-Gal (senescence-associated beta-galactosidase) staining compared to proliferating untreated cells. Senescent fibroblasts were plated into 96-well plates at a density of 10,000 cells per well. The next day, ferrostatin-1 was diluted in cell medium to reach a final concentration of 0.375 and 6 μM and was added to cells. Approximately 30 minutes after the addition of ferrostatin-1, compounds 18 and 32 at 1.11 μM, or the peptidyl transfer inhibitor puromycin at 10 μM were added to cells. Cells were incubated with the compounds for 24 hours, at which point viability was quantified using the CellTiter-Glo assay (Promega). The viability for treated cells was determined relative to untreated control cells.
# senescent HEPG2 cells = assay: Senescence assay: viability of senescent HEPG2 cells; details: Homo sapiens, 24-72 hours incubation, viability by CellTiter-Glo or XTT, read-out: Absolute IC50 average HEPG2_SEN IC50
# Summary of the method: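 A549 and HEPG2 cells made senescent by sublethal chemotherapy (bleomycin, gemcitabine, doxorubicin or 5-fluorouridine) plus recovery, verified by low EdU and high SA-β-Gal. Ten-point duplicate dosing for 24-72 h; viability by CellTiter-Glo or XTT versus untreated cells; absolute IC50 from four-parameter Hill fit.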
# senescent A549 cells = assay: Senescence assay: viability of senescent A549 cells; details: Homo sapiens, 24-72 hours incubation, viability by CellTiter-Glo or XTT, read-out: Absolute IC50 average A549_SEN IC50
# Procedure: Cells were maintained in DMEM media (high glucose, 4 mM L-glutamine, no sodium pyruvate) supplemented with 10% fetal bovine serum in a humidified incubator at 37° C. with 5% carbon dioxide. Senescence was induced via treatment with a sublethal concentration of chemotherapy (bleomycin, gemcitabine, doxorubicin, 5-fluorouridine), followed by a rest period without chemotherapy similarly to what is reported by others in the field (e.g., Aoshiba et al., 2003 Eur Respir J 22:436-443). Senescence was qualified by low EdU (5-ethynyl-2′-deoxyuridine) incorporation and high SA-β-Gal (senescence-associated beta-galactosidase) staining compared to proliferating untreated cells. Senescent cells were plated into 96-well plates at a density of 5-15,000 cells/well. The next day, compounds were added in duplicate across ten different concentrations spanning roughly four Log10 units. Cells were incubated with the compounds for 24-72 hours, at which point viability was quantified using CellTiter-Glo (Promega) or XTT (R&D Systems). The viability for treated cells was determined relative to untreated control cells. The log of the compound concentration vs. normalized mean viability was fit to a four parameters Hill function with variable slope. The bottom was constrained to be greater than zero. The X mean value for Y=50 was interpolated to determine the absolute IC50. The results in Table 2 indicate that many of the compounds are active in cells and can induce a dose dependent decrease in the viability of senescent HEPG2 and A549 cells.
# GPX4 = molecular target: T1, GPX4 (Homo sapiens, UniProt P36969); assay: Competitive binding to GPX4 in A549 cells with biotinylated analog, streptavidin pull-down; parameters: host or cells: A549; details: 2 μM for 2 hours before 2 μM compound 21 for 5 hours
# T1 sequence (P36969 1-197): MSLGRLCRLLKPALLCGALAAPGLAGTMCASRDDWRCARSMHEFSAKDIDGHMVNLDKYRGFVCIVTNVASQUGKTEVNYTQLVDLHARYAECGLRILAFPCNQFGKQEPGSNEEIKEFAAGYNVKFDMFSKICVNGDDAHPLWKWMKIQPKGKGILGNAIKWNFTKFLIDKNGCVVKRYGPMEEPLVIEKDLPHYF
# Procedure: Binding of compounds 32 and 69 to the target protein GPX4 in cultured cells can be assessed by the use of biotinylated analogs such as compound 21 that retain their cellular activities. Cells or tissue simultaneously or sequentially exposed to compounds 32 and 69 and biotinylated analog 21 can be analyzed for exogenous biotinylated proteins and thereby enables the identification of cellular targets of compounds 32 and 69. The A549 cancer cell line (ATCC) was exposed to 2 μM of compounds 32 and 69 for 2 hours followed by the addition of 2 μM of compound 21 for 5 hours. Cells were collected and lysed by IGEPAL CA-630 and sodium dodecyl sulfate (SDS) in the presence of a protease inhibitor cocktail (4693132001, Roche). The soluble protein fraction was isolated and incubated with Streptavidin Mag Sepharose (28-9857-38, Cytiva) at 4° C. for 16 hours. The streptavidin-unbound fraction was collected allowing for the quantification of the proportion of GPX4 depleted by the biotinylated compound 21 relative to samples not treated with Streptavidin Mag Sepharose. Furthermore, biotinylated proteins were eluted from Streptavidin Mag Sepharose by head-denaturation in the presence of excess biotin (5 mM). […] Chemiluminescent following HRP substrate addition (34580, ThermoFisher) was detected by the ChemiDoc XRS+ System (Bio-Rad). […]
SMILES,inhibition by ferrostatin-1 of compound-induced cell death [1],IC50 (senescent HEPG2 cells),IC50 (senescent A549 cells),effect of pre-treatment on compound 21 dependent depletion of GPX4 protein (GPX4)
"CCOC(=O)c1ccc(NC2CCCCC2)c(N)c1 [ferrostatin-1, reference compound]",potently inhibits cell death,,,
"C#CC(F)(F)[C@]1(O)CC[C@H]2[C@@H]3CCC4=CC(=NOCCO)CCC4=C3[C@@H](c3ccc(C4CC4)cc3)C[C@@]21C [Compound 18, (8S,11R,13S,14S,17S)-11-(4-cyclopropylphenyl)-17-(1,1-difluoroprop-2-yn-1-yl)-17-hydroxy-13-methyl-1,2,6,7,8,11,12,13,14,15,16,17-dodecahydro-3H-cyclopenta[a]phenanthren-3-one O-(2-hydroxyethyl)oxime]",potently inhibits cell death induced by compounds 18 and 32,0.1 to 10 nM,10 to 100 nM,
"C#CC(F)(F)[C@]1(O)CC[C@H]2[C@@H]3CCC4=C/C(=N/NC(=O)NC5CC5)CCC4=C3[C@@H](c3ccc(C4CC4)cc3)C[C@@]21C [Compound 69, (E)-N-cyclopropyl-2-((8S,11R,13S,14S,17S)-11-(4-cyclopropylphenyl)-17-(1,1-difluoroprop-2-yn-1-yl)-17-hydroxy-13-methyl-1,2,6,7,8,11,12,13,14,15,16,17-dodecahydro-3H-cyclopenta[a]phenanthren-3-ylidene)hydrazine-1-carboxamide]",,,,reduces the compound 21 dependent depletion of GPX4 protein
